Assay results as given in PubChem BioAssay AID2060891 (Molecular Pharmacology Branch, DTP, NCI, 2025).
pIC50: −log10 of the molar value.

Tested on: K98450-129-R-PDC complex spheroid growth, percent test/control
Assay: Anticancer human tumor K98450-129-R-PDC patient-derived colon adenocarcinoma cell line growth inhibition [RAS]
Conditions: for pIC50: curve of first compound; for viability, T/C: stronger effect = lower value; active = viability on the fitted dose curve at most 10% of control; inactive = the rest
Procedure, shortened: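 Multi-cell-type spheroids: tumor cells plus HUVEC endothelial cells and mesenchymal stem cells. RAS-pathway inhibitors were combined with targeted agents, each dosed in half-log steps down from clinical Cmax, or from 10 microM when Cmax was unknown.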

[1] = second compound 0.00316 µM, first compound 0.0316 µM
[2] = second compound 0.00316 µM, first compound 0.1 µM
[3] = second compound 0.00316 µM, first compound 0.316 µM
[4] = second compound 0.00316 µM, first compound 1 µM
[5] = second compound 0.01 µM, first compound 0.0316 µM
[6] = second compound 0.01 µM, first compound 0.1 µM
[7] = second compound 0.01 µM, first compound 0.316 µM
[8] = second compound 0.01 µM, first compound 1 µM
[9] = second compound 0.0316 µM, first compound 0.0316 µM
[10] = second compound 0.0316 µM, first compound 0.1 µM
[11] = second compound 0.0316 µM, first compound 0.316 µM
[12] = second compound 0.0316 µM, first compound 1 µM
[13] = second compound 0.1 µM, first compound 0.0316 µM
[14] = second compound 0.1 µM, first compound 0.1 µM
[15] = second compound 0.1 µM, first compound 0.316 µM
[16] = second compound 0.1 µM, first compound 1 µM
[17] = second compound 0.316 µM, first compound 0.0316 µM
[18] = second compound 0.316 µM, first compound 0.1 µM
[19] = second compound 0.316 µM, first compound 0.316 µM
[20] = second compound 0.316 µM, first compound 1 µM
[21] = second compound 1 µM, first compound 0.0316 µM
[22] = second compound 1 µM, first compound 0.1 µM
[23] = second compound 1 µM, first compound 0.316 µM
[24] = second compound 1 µM, first compound 1 µM
[25] = second compound 0.00316 µM, first compound 0.000949 µM
[26] = second compound 0.00316 µM, first compound 0.003 µM
[27] = second compound 0.00316 µM, first compound 0.00949 µM
[28] = second compound 0.00316 µM, first compound 0.03 µM
[29] = second compound 0.00316 µM, first compound 0.0949 µM
[30] = second compound 0.00316 µM, first compound 0.3 µM
[31] = second compound 0.01 µM, first compound 0.000949 µM
[32] = second compound 0.01 µM, first compound 0.003 µM
[33] = second compound 0.01 µM, first compound 0.00949 µM
[34] = second compound 0.01 µM, first compound 0.03 µM
[35] = second compound 0.01 µM, first compound 0.0949 µM
[36] = second compound 0.01 µM, first compound 0.3 µM
[37] = second compound 0.0316 µM, first compound 0.000949 µM
[38] = second compound 0.0316 µM, first compound 0.003 µM
[39] = second compound 0.0316 µM, first compound 0.00949 µM
[40] = second compound 0.0316 µM, first compound 0.03 µM
[41] = second compound 0.0316 µM, first compound 0.0949 µM
[42] = second compound 0.0316 µM, first compound 0.3 µM
[43] = second compound 0.1 µM, first compound 0.000949 µM
[44] = second compound 0.1 µM, first compound 0.003 µM
[45] = second compound 0.1 µM, first compound 0.00949 µM
[46] = second compound 0.1 µM, first compound 0.03 µM
[47] = second compound 0.1 µM, first compound 0.0949 µM
[48] = second compound 0.1 µM, first compound 0.3 µM
[49] = second compound 0.316 µM, first compound 0.000949 µM
[50] = second compound 0.316 µM, first compound 0.003 µM
[51] = second compound 0.316 µM, first compound 0.00949 µM
[52] = second compound 0.316 µM, first compound 0.03 µM
[53] = second compound 0.316 µM, first compound 0.0949 µM
[54] = second compound 0.316 µM, first compound 0.3 µM
[55] = second compound 1 µM, first compound 0.000949 µM
[56] = second compound 1 µM, first compound 0.003 µM
[57] = second compound 1 µM, first compound 0.00949 µM
[58] = second compound 1 µM, first compound 0.03 µM
[59] = second compound 1 µM, first compound 0.0949 µM
[60] = second compound 1 µM, first compound 0.3 µM
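Note: spheroids exposed to agents for seven days before the viability readout.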
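Throughout, for viability, T/C: luminescence used as a proxy for viable cell amount.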

CC(=O)OC12COC1CC(O)C1(C)C(=O)C(O)C3=C(C)C(OC(=O)C(O)C(NC(=O)OC(C)(C)C)c4ccccc4)CC(O)(C(OC(=O)c4ccccc4)C21)C3(C)C (stereo not drawn) + C=CC(=O)N1CCN(c2nc(OCC3CCCN3C)nc3c(F)c(-c4nc(N)cc(C)c4C(F)(F)F)c(Cl)cc23)C(C)C1
inactive: viability, T/C [1] 91.4% | viability, T/C [2] 83.6% | viability, T/C [3] 44.3% | viability, T/C [4] 27.3% | viability, T/C (second compound 0.00316 µM, first compound 3.16 µM) 23.6% | viability, T/C (second compound 0.00316 µM, first compound 10 µM) 22.6% | viability, T/C [5] 88.2% | viability, T/C [6] 83.1% | viability, T/C [7] 35.4% | viability, T/C [8] 22.8% | viability, T/C (second compound 0.01 µM, first compound 3.16 µM) 20.8% | viability, T/C (second compound 0.01 µM, first compound 10 µM) 19.8% | viability, T/C [9] 71.7% | viability, T/C [10] 62.4% | viability, T/C [11] 27.7% | viability, T/C [12] 17.4% | viability, T/C (second compound 0.0316 µM, first compound 3.16 µM) 16.7% | viability, T/C (second compound 0.0316 µM, first compound 10 µM) 15.6% | viability, T/C [13] 50% | viability, T/C [14] 38.4% | viability, T/C [15] 16.3% | viability, T/C [16] 14.6% | viability, T/C (second compound 0.1 µM, first compound 3.16 µM) 14% | viability, T/C (second compound 0.1 µM, first compound 10 µM) 14.3% | viability, T/C [17] 35.4% | viability, T/C [18] 26.4% | viability, T/C [19] 14% | viability, T/C [20] 12.4% | viability, T/C (second compound 0.316 µM, first compound 3.16 µM) 12.4% | viability, T/C (second compound 0.316 µM, first compound 10 µM) 12.2% | viability, T/C [21] 26.3% | viability, T/C [22] 18.5% | viability, T/C [23] 13.7% | viability, T/C [24] 12.7% | viability, T/C (second compound 1 µM, first compound 3.16 µM) 12.4% | viability, T/C (second compound 1 µM, first compound 10 µM) 13.4%
6.65: pIC50 (second compound 0.01 µM)
6.57: pIC50 (second compound 0.00316 µM)
6.82: pIC50 (second compound 0.0316 µM)
> 7.50: pIC50 (second compound 0.1 µM) | pIC50 (second compound 0.316 µM) | pIC50 (second compound 1 µM)

CC1(C)CCC(Nc2ncc(C(F)(F)F)c(-c3c[nH]c4c(P(C)(C)=O)c(C#N)ccc34)n2)CN1 (stereo not drawn) + C=CC(=O)N1CCN(c2nc(OCC3CCCN3C)nc3c(F)c(-c4nc(N)cc(C)c4C(F)(F)F)c(Cl)cc23)C(C)C1
< 6.52: pIC50 (second compound 0.00316 µM)
6.78: pIC50 (second compound 0.0316 µM)
6.57: pIC50 (second compound 0.01 µM)
> 9.02: pIC50 (second compound 0.316 µM) | pIC50 (second compound 1 µM)
inactive: viability, T/C [25] 99.3% | viability, T/C [26] 100% | viability, T/C [27] 97.8% | viability, T/C [28] 97.6% | viability, T/C [29] 84.2% | viability, T/C [30] 53.7% | viability, T/C [31] 86.4% | viability, T/C [32] 87.3% | viability, T/C [33] 84.2% | viability, T/C [34] 86.2% | viability, T/C [35] 70.6% | viability, T/C [36] 47.5% | viability, T/C [37] 70.5% | viability, T/C [38] 76.3% | viability, T/C [39] 77.3% | viability, T/C [40] 76% | viability, T/C [41] 58.5% | viability, T/C [42] 41.2% | viability, T/C [43] 60.1% | viability, T/C [44] 54.5% | viability, T/C [45] 56.1% | viability, T/C [46] 59% | viability, T/C [47] 46% | viability, T/C [48] 34.5% | viability, T/C [49] 41.1% | viability, T/C [50] 41.3% | viability, T/C [51] 40.6% | viability, T/C [52] 41.3% | viability, T/C [53] 37.8% | viability, T/C [54] 31% | viability, T/C [55] 35.1% | viability, T/C [56] 33.3% | viability, T/C [57] 35.1% | viability, T/C [58] 33.8% | viability, T/C [59] 32.9% | viability, T/C [60] 32.5%
7.14: pIC50 (second compound 0.1 µM)

CCc1c2c(nc3ccc(O)cc13)-c1cc3c(c(=O)n1C2)COC(=O)[C@]3(O)CC + C=CC(=O)N1CCN(c2nc(OCC3CCCN3C)nc3c(F)c(-c4nc(N)cc(C)c4C(F)(F)F)c(Cl)cc23)C(C)C1
> 9.02: pIC50 (second compound 0.316 µM) | pIC50 (second compound 1 µM)
inactive: viability, T/C [25] 93.5% | viability, T/C [26] 87.7% | viability, T/C [27] 68.1% | viability, T/C [28] 49.7% | viability, T/C [29] 34.1% | viability, T/C [30] 27.6% | viability, T/C [31] 86.7% | viability, T/C [32] 76.1% | viability, T/C [33] 60.6% | viability, T/C [34] 39.1% | viability, T/C [35] 29.2% | viability, T/C [36] 23.6% | viability, T/C [37] 74.5% | viability, T/C [38] 63.8% | viability, T/C [39] 46.1% | viability, T/C [40] 24.1% | viability, T/C [41] 20.6% | viability, T/C [42] 18% | viability, T/C [43] 54.6% | viability, T/C [44] 53.3% | viability, T/C [45] 33% | viability, T/C [46] 20.3% | viability, T/C [47] 16.7% | viability, T/C [48] 11.7% | viability, T/C [49] 38.1% | viability, T/C [50] 35.4% | viability, T/C [51] 25.4% | viability, T/C [52] 16.6% | viability, T/C [53] 15% | viability, T/C [54] 9.83% | viability, T/C [55] 31.7% | viability, T/C [56] 30.3% | viability, T/C [57] 23.6% | viability, T/C [58] 18.9% | viability, T/C [59] 14.1%
7.78: pIC50 (second compound 0.01 µM)
active: viability, T/C [60] 8.49%
8.49: pIC50 (second compound 0.1 µM)
7.55: pIC50 (second compound 0.00316 µM)
8.15: pIC50 (second compound 0.0316 µM)

Nc1ccn(C2OC(CO)C(O)C2(F)F)c(=O)n1 (stereo not drawn) + C=CC(=O)N1CCN(c2nc(OCC3CCCN3C)nc3c(F)c(-c4nc(N)cc(C)c4C(F)(F)F)c(Cl)cc23)C(C)C1
7.82: pIC50 (second compound 0.0316 µM)
8.24: pIC50 (second compound 0.1 µM)
7.24: pIC50 (second compound 0.00316 µM)
7.47: pIC50 (second compound 0.01 µM)
> 8.50: pIC50 (second compound 0.316 µM) | pIC50 (second compound 1 µM)
inactive: viability, T/C (second compound 0.00316 µM, first compound 0.00316 µM) 91.3% | viability, T/C (second compound 0.00316 µM, first compound 0.01 µM) 86.3% | viability, T/C [1] 59.6% | viability, T/C [2] 40.5% | viability, T/C [3] 31.7% | viability, T/C [4] 25.8% | viability, T/C (second compound 0.01 µM, first compound 0.00316 µM) 91% | viability, T/C (second compound 0.01 µM, first compound 0.01 µM) 76.8% | viability, T/C [5] 49.1% | viability, T/C [6] 34.8% | viability, T/C [7] 28.5% | viability, T/C [8] 22.8% | viability, T/C (second compound 0.0316 µM, first compound 0.00316 µM) 68.4% | viability, T/C (second compound 0.0316 µM, first compound 0.01 µM) 59.5% | viability, T/C [9] 34.1% | viability, T/C [10] 22.6% | viability, T/C [11] 18.5% | viability, T/C [12] 16.3% | viability, T/C (second compound 0.1 µM, first compound 0.00316 µM) 57.5% | viability, T/C (second compound 0.1 µM, first compound 0.01 µM) 43% | viability, T/C [13] 24.4% | viability, T/C [14] 17.7% | viability, T/C [15] 15.2% | viability, T/C [16] 14.7% | viability, T/C (second compound 0.316 µM, first compound 0.00316 µM) 41.5% | viability, T/C (second compound 0.316 µM, first compound 0.01 µM) 38.6% | viability, T/C [17] 21.8% | viability, T/C [18] 16.4% | viability, T/C [19] 14.2% | viability, T/C [20] 12.8% | viability, T/C (second compound 1 µM, first compound 0.00316 µM) 36.2% | viability, T/C (second compound 1 µM, first compound 0.01 µM) 25.1% | viability, T/C [21] 18.8% | viability, T/C [22] 16.9% | viability, T/C [23] 14.3% | viability, T/C [24] 14.4%
